Reference: publication PMC10797613 (ACS Chemical Neuroscience, 2024)
Where “and” joins values, the source holds several entries; their conditions need not be identical. Identical values can stand only once. Like-named read-outs stand apart in the source and are kept apart here.

How the values were obtained:
C57BL/6J mice [1] = assay: mouse head twitch response; format: in vivo; conditions: for time of peak HTR effects / Emax(HTR events/30 min) / ED50(mg/kg s.c.) for HTR: mice; for time of peak HTR effects: post drug administration; for Emax(HTR events/30 min) / ED50(mg/kg s.c.) for HTR: s.c.; for Emax(HTR events/30 min): maximum effect; for ED50(mg/kg s.c.) for HTR: 30 min session, ascending phase of HTR curve; for HTR activity (in words): mouse, in vivo
H1 = H1 (Homo sapiens, UniProt P35367); assay: biochemical; format: binding
5-HT2B receptor = 5-HT2B receptor (Homo sapiens, UniProt P41595); assay: Gαq-mediated calcium flux assay; format: cell-based; conditions: 95% CI in brackets; * = potentially ambiguous
C57BL/6J mice [2] = assay: locomotor activity; format: in vivo, mouse; conditions: s.c., 30 min testing session
5-HT2A receptor = 5-HT2A receptor (Homo sapiens, UniProt P28223); assay: Gαq-mediated calcium flux assay; format: cell-based; conditions: read-out: Emax (% 5-HT) 5-HT2A calcium flux, 95% CI in brackets
5-HT2C receptor = biological target: T1, 5-HT2C receptor (Homo sapiens, UniProt P28335); assay: Gαq-mediated calcium flux assay; format: cell-based
T1 sequence (P28335 33-458): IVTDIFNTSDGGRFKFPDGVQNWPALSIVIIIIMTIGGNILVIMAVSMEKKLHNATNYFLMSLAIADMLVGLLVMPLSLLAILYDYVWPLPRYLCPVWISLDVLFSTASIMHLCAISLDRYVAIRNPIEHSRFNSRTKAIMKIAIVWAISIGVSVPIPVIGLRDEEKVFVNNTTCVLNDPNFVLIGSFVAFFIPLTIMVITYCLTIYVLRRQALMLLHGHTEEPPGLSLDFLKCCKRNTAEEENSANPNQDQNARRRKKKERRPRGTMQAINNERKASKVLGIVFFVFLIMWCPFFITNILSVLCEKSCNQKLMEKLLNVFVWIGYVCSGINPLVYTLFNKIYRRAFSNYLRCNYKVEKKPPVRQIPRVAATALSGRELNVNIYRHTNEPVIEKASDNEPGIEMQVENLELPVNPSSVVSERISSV

5-HT1B = 5-HT1B (Homo sapiens, UniProt P28222); assay: GPCR Tango assay measuring β-arrestin recruitment; format: cell-based; conditions: up to 50 μM
C57BL/6J mice [3] = assay: body temperature change from pre to post session in mice; format: in vivo, mouse; conditions: highest dose tested
5-HT7A = 5-HT7A (Homo sapiens, UniProt P34969); assay: GPCR Tango assay measuring β-arrestin recruitment; format: cell-based; conditions: EC50 5-HT7A Tango, 95% CI in brackets; * = ambiguous
C57BL/6J mice [4] = conditions: cited from earlier work
[5] = s.c., identical testing conditions

Chain of 5-HT2B receptor (P41595 whole entry): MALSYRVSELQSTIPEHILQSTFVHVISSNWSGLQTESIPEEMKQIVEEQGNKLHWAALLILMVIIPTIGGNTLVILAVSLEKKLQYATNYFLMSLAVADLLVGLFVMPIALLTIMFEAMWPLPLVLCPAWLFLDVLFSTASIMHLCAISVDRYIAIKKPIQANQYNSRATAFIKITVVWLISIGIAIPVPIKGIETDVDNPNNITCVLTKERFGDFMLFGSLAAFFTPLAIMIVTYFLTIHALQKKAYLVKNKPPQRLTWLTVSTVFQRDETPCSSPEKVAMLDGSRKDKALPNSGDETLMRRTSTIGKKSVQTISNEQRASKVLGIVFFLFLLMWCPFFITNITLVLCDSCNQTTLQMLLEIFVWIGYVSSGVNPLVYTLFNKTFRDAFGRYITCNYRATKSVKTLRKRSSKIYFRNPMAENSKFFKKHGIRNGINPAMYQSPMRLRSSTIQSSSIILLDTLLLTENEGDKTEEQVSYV
Chain of 5-HT1B (P28222 whole entry): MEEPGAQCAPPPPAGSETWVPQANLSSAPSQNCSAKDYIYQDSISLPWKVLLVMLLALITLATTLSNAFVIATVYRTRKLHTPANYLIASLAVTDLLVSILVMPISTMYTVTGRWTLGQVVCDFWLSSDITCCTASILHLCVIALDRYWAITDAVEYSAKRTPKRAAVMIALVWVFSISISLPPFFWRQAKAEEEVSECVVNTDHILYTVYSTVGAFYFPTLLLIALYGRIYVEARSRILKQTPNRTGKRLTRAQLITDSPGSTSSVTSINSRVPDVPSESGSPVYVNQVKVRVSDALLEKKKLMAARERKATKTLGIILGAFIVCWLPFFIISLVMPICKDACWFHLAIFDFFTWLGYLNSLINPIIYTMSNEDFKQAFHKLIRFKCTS
Chain of 5-HT2A receptor (P28223 whole entry): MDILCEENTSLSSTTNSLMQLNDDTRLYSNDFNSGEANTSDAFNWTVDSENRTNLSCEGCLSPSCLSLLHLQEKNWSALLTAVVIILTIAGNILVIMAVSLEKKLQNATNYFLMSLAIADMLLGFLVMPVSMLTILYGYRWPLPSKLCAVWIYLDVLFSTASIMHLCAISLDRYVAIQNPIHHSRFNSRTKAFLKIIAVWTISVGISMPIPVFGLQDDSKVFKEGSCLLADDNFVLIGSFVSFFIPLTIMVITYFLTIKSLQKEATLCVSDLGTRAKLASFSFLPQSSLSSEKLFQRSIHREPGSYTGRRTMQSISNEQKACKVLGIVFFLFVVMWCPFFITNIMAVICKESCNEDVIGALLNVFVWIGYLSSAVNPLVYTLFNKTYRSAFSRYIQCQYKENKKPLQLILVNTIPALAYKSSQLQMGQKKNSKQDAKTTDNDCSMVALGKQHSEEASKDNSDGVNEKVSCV
Chain of H1 (P35367 whole entry): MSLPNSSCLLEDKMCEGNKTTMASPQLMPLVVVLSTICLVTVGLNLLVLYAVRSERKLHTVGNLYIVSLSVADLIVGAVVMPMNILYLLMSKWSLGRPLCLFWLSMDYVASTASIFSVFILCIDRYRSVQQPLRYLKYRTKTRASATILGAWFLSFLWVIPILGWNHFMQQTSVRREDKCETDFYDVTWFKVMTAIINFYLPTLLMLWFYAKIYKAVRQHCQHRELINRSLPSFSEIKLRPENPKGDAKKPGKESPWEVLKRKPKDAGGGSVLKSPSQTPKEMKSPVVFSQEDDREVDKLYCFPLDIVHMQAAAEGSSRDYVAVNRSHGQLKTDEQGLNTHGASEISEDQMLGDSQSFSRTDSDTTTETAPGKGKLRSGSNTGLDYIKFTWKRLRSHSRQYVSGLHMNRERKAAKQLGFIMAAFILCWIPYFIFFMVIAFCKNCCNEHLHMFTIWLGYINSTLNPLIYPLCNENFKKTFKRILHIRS
Chain of 5-HT7A (P34969 1-445 isoform P34969-2): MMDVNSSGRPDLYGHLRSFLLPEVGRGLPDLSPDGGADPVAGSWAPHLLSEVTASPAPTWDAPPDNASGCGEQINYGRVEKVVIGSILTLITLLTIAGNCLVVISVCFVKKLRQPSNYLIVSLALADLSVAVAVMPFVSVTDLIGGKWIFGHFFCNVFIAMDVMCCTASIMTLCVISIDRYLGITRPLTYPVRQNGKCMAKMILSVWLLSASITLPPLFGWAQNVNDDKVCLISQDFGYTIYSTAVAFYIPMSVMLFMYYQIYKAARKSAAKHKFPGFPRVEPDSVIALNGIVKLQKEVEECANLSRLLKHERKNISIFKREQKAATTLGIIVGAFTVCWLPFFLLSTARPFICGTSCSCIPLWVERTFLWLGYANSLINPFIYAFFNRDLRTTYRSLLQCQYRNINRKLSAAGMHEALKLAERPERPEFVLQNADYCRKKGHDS

| SMILES | time of peak HTR effects (C57BL/6J mice [1]) [min] | Emax(HTR events/30 min) (C57BL/6J mice [1]) | effect on locomotor activity (in words) (C57BL/6J mice [2]) | 5-HT2C functional activity (in words) (5-HT2C receptor) | HTR activity (in words) (C57BL/6J mice [1]) | other results |
| --- | --- | --- | --- | --- | --- | --- |
| C=CCNCCc1c[nH]c2cccc(O)c12.C=CCNCCc1c[nH]c2cccc(O)c12.O=C(O)/C=C/C(=O)O [4-HO-NALT, 3-(2-(Allylamino)ethyl)-1H-indol-4-ol Hemifumarate] | 5 to 15 | 77 HTR events/30 min and 76.6 HTR events/30 min | – | – | – | Ki (H1): 467 nM; Emax (% 5-HT) 5-HT2B calcium flux (5-HT2B receptor): 88 % 5-HT |
| O=C(O)/C=C/C(=O)O.Oc1cccc2[nH]cc(CCNCc3ccccc3)c12 [4-HO-NBnT, 3-(2-(Benzylamino)ethyl)-1H-indol-4-ol Fumarate] | 5 to 15 | 26.1 HTR events/30 min | reduced the total locomotor activity | – | – | Emax (5-HT2A receptor): 70%; decrease in HTR potency relative to psilocin (C57BL/6J mice [1]; mg/kg basis): 10 fold; Emax (% 5-HT) 5-HT2B calcium flux (5-HT2B receptor): 11 % 5-HT |
| CCNCCc1c[nH]c2cccc(O)c12.CCNCCc1c[nH]c2cccc(O)c12.O=C(O)CCC(=O)O [4-HO-NET, 3-(2-(Ethylamino)ethyl)-1H-indol-4-ol Hemisuccinate] | 15 to 25 | 39.8 HTR events/30 min | reduced the total locomotor activity | – | – | delay of maximum HTR occurrence compared to 4-HO-NALT (C57BL/6J mice [1]; at equivalent doses): 10 min |
| CCCNCCc1c[nH]c2cccc(O)c12.CCCNCCc1c[nH]c2cccc(O)c12.O=C(O)/C=C/C(=O)O [4-HO-NPT, 3-(2-(Propylamino)ethyl)-1H-indol-4-ol Hemifumarate] | 5 to 15 | 52 HTR events/30 min and 52.1 HTR events/30 min | reduced the total locomotor activity | – | – | ED50(mg/kg s.c.) for HTR (C57BL/6J mice [1]): 2.9 mg/kg |
| O=C(O)/C=C/C(=O)O.Oc1cccc2[nH]cc(CCNC3CCCCC3)c12 [4-HO-NcHT, 3-(2-(Cyclohexylamino)ethyl)-1H-indol-4-ol Fumarate] | – | – | – | inactive | inactive | 5-HT1B agonist activity Tango (in words) (5-HT1B): inactive |
| CC(C)NCCc1c[nH]c2cccc(O)c12.O=C(O)/C=C/C(=O)O [4-HO-NiPT, 3-(2-(Isopropylamino)ethyl)-1H-indol-4-ol Fumarate] | 15 to 25 | 27 HTR events/30 min and 27.5 HTR events/30 min | – | weak partial agonists | – | hypothermia Emax (C57BL/6J mice [3]): −1.7 °C; ED50(mg/kg s.c.) for HTR (C57BL/6J mice [1]): 3.3 mg/kg |
| CCCCNCCc1c[nH]c2cccc(O)c12.O=C(O)/C=C/C(=O)O [4-HO-NnBT, 3-(2-(Butylamino)ethyl)-1H-indol-4-ol Fumarate] | – | – | reduced the total locomotor activity | weak partial agonists | inactive | EC50 (5-HT7A): 1000 nM |
| CC(C)(C)NCCc1c[nH]c2cccc(O)c12.CC(C)(C)NCCc1c[nH]c2cccc(O)c12.O=C(O)/C=C/C(=O)O [4-HO-NtBT, 3-(2-(tert-Butylamino)ethyl)-1H-indol-4-ol Hemifumarate] | – | – | – | inactive | inactive | 5-HT1B agonist activity Tango (in words) (5-HT1B): inactive |
| CNCCc1c[nH]c2cccc(O)c12 [norpsilocin, 4-hydroxy-N-methyltryptamine] | – | – | – | – | – | ED50(mg/kg s.c.) for HTR (C57BL/6J mice [4]; [5]): >30 mg/kg; HTR activity (in words) (C57BL/6J mice [4]; same assay setup): failed to induce psychedelic-like HTR activity |
| CN(C)CCc1c[nH]c2cccc(O)c12 [psilocin, 4-hydroxy-N,N-dimethyltryptamine] | – | – | – | – | – | reported HTR ED50 potency (C57BL/6J mice [4]): 0.11 to 0.17 mg/kg; ED50(mg/kg s.c.) for HTR (C57BL/6J mice [4]; [5]): 0.11 mg/kg; Emax(HTR events/30 min) (C57BL/6J mice [4]; [5]): 23 HTR events/30 min |
